This note sets out measurements from US8883680B2, “Herbicide combinations with particular sulphonyl ureas” (Bayer Cropscience AG, priority 2006, dated 2014).

Each structure is given as a SMILES string.

What all share (type): in vivo
One test deals with Acacia farnesiana. As to the kind of experiment: Herbicidal action against woody shrub weeds (greenhouse trials). Particulars: Vachellia farnesiana, 672 h. The method, then:
(§1) The seeds or rhizome pieces of typical harmful plants were placed into sandy loam soil in round pots, size 13, covered with soil and grown in a greenhouse under good growth conditions. After the harmful plants had emerged, they were treated, as a rule at the 2- to 3-leaf stage, with various dosages of the compositions according to the invention at a water application rate of 100 to 400 I/ha (converted).
(§2) After the treatment (approx. 4 weeks after application), the herbidical activity of the active compounds or active compound mixtures was scored visually by comparing the treated plants with untreated controls. Damage and development of all above-ground parts of the plants was recorded. Scoring was done on a percentage scale (100% action=all plants dead; 50% action=50% of the plants and green plant parts dead; 0% action=no discernible action).
(§3) The results are listed in the tables below, where the activity measured for the independent use of the active compounds (A) and (B) is stated in brackets.
(§4) The plants were cultivated to the 5- to 6-leaf stage. Herbicide application and scoring of the trial were carried out as in Example 1.

In a further test the test system is Mimosa pigra. The description is as above. Particulars: 672 h. The protocol: as §1, §2, §3, §4
The subject of another test is Lamium amplexicaule. As to the kind of experiment: Herbicidal action against weeds (greenhouse trials), post-emergence. Particulars: 672 h, 2- to 3-leaf stage, scored visually approx. 4 weeks after application. The protocol: as §1, §2, §3
The test system of the next test is Veronica persica. The description is as above. The settings on record: 672 h, 2- to 3-leaf stage, scored visually approx. 4 weeks after application. The method, then:
as §1, §2, §3

[1] abbreviates: application rate 40 g of ai/ha, 5- to 6-leaf stage, scored visually approx. 4 weeks after application.

Regarding `Nc1cc(Cl)nc(C(=O)O)c1Cl` [Aminopyralid, 4-amino-3,6-dichloropyridine-2-carboxylic acid], the figures for the inhibition at 60 g/ha in the test on Acacia farnesiana (read-out: Acacia farnesiana % activity) and with Mimosa pigra (read-out: Mimosa pigra % activity) were 55% and 73%, respectively.
On to `Nc1c(Cl)c(Cl)nc(C(=O)O)c1Cl` [Picloram, 4-amino-3,5,6-trichloropyridine-2-carboxylic acid], for which the inhibition at 60 g/ha was 75% with Lamium amplexicaule (application rate 60 g of ai/ha) and 62% with Veronica persica (application rate 60 g of ai/ha).
Consider `COc1cc(OC)nc(NC(=O)NS(=O)(=O)N(C)S(C)(=O)=O)n1` [Amidosulfuron, 1-(4,6-dimethoxypyrimidin-2-yl)-3-mesyl(methyl)sulfamoylurea], for which the inhibition at 20 g/ha stood at 18% in the test with Lamium amplexicaule (application rate 20 g of ai/ha) and 20% in the test on Veronica persica (application rate 20 g of ai/ha). Also, the inhibition at 40 g/ha was determined as 43% in the test on Acacia farnesiana (setting [1]) and 20% in the test on Mimosa pigra (setting [1]).
